# Biological target: T1, human MC4R (Homo sapiens, UniProt P32245)
# Test: not given
# Design: method as in earlier work
# Conditions: 10 μM; previously reported; cited from earlier work
# T1 sequence (P32245 whole entry): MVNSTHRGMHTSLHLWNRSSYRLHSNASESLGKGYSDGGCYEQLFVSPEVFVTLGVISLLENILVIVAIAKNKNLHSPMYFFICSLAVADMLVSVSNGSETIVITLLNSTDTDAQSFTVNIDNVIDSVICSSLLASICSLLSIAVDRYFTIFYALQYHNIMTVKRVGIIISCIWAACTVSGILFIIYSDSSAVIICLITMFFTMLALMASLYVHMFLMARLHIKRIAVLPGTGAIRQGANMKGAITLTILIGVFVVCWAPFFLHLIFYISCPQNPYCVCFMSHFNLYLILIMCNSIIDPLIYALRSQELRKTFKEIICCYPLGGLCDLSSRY
row,Compound,inhibition binding value [%]
1,"C[C@@H]1CCO[C@H]2Cn3cc(C(=O)NCc4ccc(F)cc4F)c(=O)c(O)c3C(=O)N12 [DTG, dolutegravir]",64

# Test system: rats
# Test: not given
# Conditions: daily oral, 26 weeks, AUC 16- to 30-fold clinical exposure at 50 mg; cited from earlier work
row,Compound,effects on body weight gain
1,"O=C(NCc1c(F)cc(F)cc1F)c1cn2c(c(O)c1=O)C(=O)N1[C@H]3CC[C@H](C3)O[C@@H]1C2 [BIC, bictegravir]",no effects on body weight gain

# Test system: not given
# Test: not given
# Conditions: human plasma; cited from earlier work
row,Compound,% unbound [%]
1,"C[C@H]1CO[C@@H]2Cn3cc(C(=O)NCc4ccc(F)cc4F)c(=O)c(O)c3C(=O)N12 [CAB, cabotegravir]",0.16
2,"O=C(NCc1c(F)cc(F)cc1F)c1cn2c(c(O)c1=O)C(=O)N1[C@H]3CC[C@H](C3)O[C@@H]1C2 [BIC, bictegravir]",0.25
3,"COc1cc2c(cc1Cc1cccc(Cl)c1F)c(=O)c(C(=O)O)cn2[C@H](CO)C(C)C [EVG, elvitegravir]",0.48
4,"C[C@@H]1CCO[C@H]2Cn3cc(C(=O)NCc4ccc(F)cc4F)c(=O)c(O)c3C(=O)N12 [DTG, dolutegravir]",0.7

# Biological target: T2, human recombinant melanocortin MC4 receptor (Homo sapiens, UniProt P32245)
# T2 construct: host or cells: frozen, irradiated CHO-K1 cells
# Test: Functional cellular cAMP TR-FRET assay, antagonist mode (inhibition of 10 nM NDP-α-MSH response)
# Type: cell-based
# Conditions: not given
# T2 sequence (P32245 whole entry): as above
row,Compound,IC50 [µM]
1,"C[C@H]1CO[C@@H]2Cn3cc(C(=O)NCc4ccc(F)cc4F)c(=O)c(O)c3C(=O)N12 [CAB, cabotegravir]",> 30
2,"O=C(NCc1c(F)cc(F)cc1F)c1cn2c(c(O)c1=O)C(=O)N1[C@H]3CC[C@H](C3)O[C@@H]1C2 [BIC, bictegravir]",> 100
3,"COc1cc2c(cc1Cc1cccc(Cl)c1F)c(=O)c(C(=O)O)cn2[C@H](CO)C(C)C [EVG, elvitegravir]",2.75
4,"C[C@@H]1CCO[C@H]2Cn3cc(C(=O)NCc4ccc(F)cc4F)c(=O)c(O)c3C(=O)N12 [DTG, dolutegravir]",69.4
5,"Cc1nnc(C(=O)NC(C)(C)c2nc(C(=O)NCc3ccc(F)cc3)c(O)c(=O)n2C)o1 [RAL, raltegravir]",> 300

# Same assay, conditions: EVG versus DTG
row,Compound,fold more potent in MC4R antagonism than DTG
1,"COc1cc2c(cc1Cc1cccc(Cl)c1F)c(=O)c(C(=O)O)cn2[C@H](CO)C(C)C [EVG, elvitegravir]",approximately 25 fold

# Same assay, conditions: antagonist IC50 divided by clinical Cmax (unbound)
row,Compound,Antagonist Fold-margin on human Cmax (unbound) [fold]
1,"C[C@H]1CO[C@@H]2Cn3cc(C(=O)NCc4ccc(F)cc4F)c(=O)c(O)c3C(=O)N12 [CAB, cabotegravir]",>1200
2,"COc1cc2c(cc1Cc1cccc(Cl)c1F)c(=O)c(C(=O)O)cn2[C@H](CO)C(C)C [EVG, elvitegravir]",120
3,"C[C@@H]1CCO[C@H]2Cn3cc(C(=O)NCc4ccc(F)cc4F)c(=O)c(O)c3C(=O)N12 [DTG, dolutegravir]",1120

# Same assay, conditions: inhibition of 10 nM NDP-α-MSH induced cAMP response; CHO-K1 cells
row,Compound,IC50 [µM]
1,"agouti-related protein (SSRRCVRLHESCLGQQVPCCDPCATCYCRFFNAFCYCRKLGTAMNPCSRT; UniProt O00253 83-132, looked up) [AgRP]",0.012

# Test system: cynomolgous monkeys
# Test: not given
# Conditions: daily oral, 39 weeks, AUC 16- to 30-fold clinical exposure at 50 mg; cited from earlier work
row,Compound,effects on body weight gain
1,"O=C(NCc1c(F)cc(F)cc1F)c1cn2c(c(O)c1=O)C(=O)N1[C@H]3CC[C@H](C3)O[C@@H]1C2 [BIC, bictegravir]",no effects on body weight gain

# Test system: not given
# Test: not given
# Conditions: read-out: Human efficacious Cmax; total plasma, at recommended clinical dosage; cited from earlier work
row,Compound,Cmax [µM]
1,"C[C@H]1CO[C@@H]2Cn3cc(C(=O)NCc4ccc(F)cc4F)c(=O)c(O)c3C(=O)N12 [CAB, cabotegravir]",15.7
2,"O=C(NCc1c(F)cc(F)cc1F)c1cn2c(c(O)c1=O)C(=O)N1[C@H]3CC[C@H](C3)O[C@@H]1C2 [BIC, bictegravir]",13.7
3,"COc1cc2c(cc1Cc1cccc(Cl)c1F)c(=O)c(C(=O)O)cn2[C@H](CO)C(C)C [EVG, elvitegravir]",4.7
4,"C[C@@H]1CCO[C@H]2Cn3cc(C(=O)NCc4ccc(F)cc4F)c(=O)c(O)c3C(=O)N12 [DTG, dolutegravir]",8.8
5,"Cc1nnc(C(=O)NC(C)(C)c2nc(C(=O)NCc3ccc(F)cc3)c(O)c(=O)n2C)o1 [RAL, raltegravir]",15.7

# Test system: mice
# Test: not given
# Conditions: daily oral, 4 weeks, AUC 16- to 30-fold clinical exposure at 50 mg; cited from earlier work
row,Compound,effects on body weight gain
1,"O=C(NCc1c(F)cc(F)cc1F)c1cn2c(c(O)c1=O)C(=O)N1[C@H]3CC[C@H](C3)O[C@@H]1C2 [BIC, bictegravir]",no effects on body weight gain

# Test system: not listed separately
# Test: Human clinical Cmax at recommended clinical dosage
# Type: in vivo
# Conditions: unbound (protein-free)
row,Compound,Human efficacious unbound Cmax [µM]
1,"C[C@H]1CO[C@@H]2Cn3cc(C(=O)NCc4ccc(F)cc4F)c(=O)c(O)c3C(=O)N12 [CAB, cabotegravir]",0.025
2,"O=C(NCc1c(F)cc(F)cc1F)c1cn2c(c(O)c1=O)C(=O)N1[C@H]3CC[C@H](C3)O[C@@H]1C2 [BIC, bictegravir]",0.034
3,"COc1cc2c(cc1Cc1cccc(Cl)c1F)c(=O)c(C(=O)O)cn2[C@H](CO)C(C)C [EVG, elvitegravir]",0.0225
4,"C[C@@H]1CCO[C@H]2Cn3cc(C(=O)NCc4ccc(F)cc4F)c(=O)c(O)c3C(=O)N12 [DTG, dolutegravir]",0.062

# Biological target: T2, human recombinant melanocortin MC4 receptor
# Test: Functional cellular cAMP TR-FRET assay, agonist mode
# Type: cell-based
# Conditions: agonist IC50 divided by clinical Cmax (unbound)
row,Compound,Agonist Fold-margin on human Cmax (unbound) [fold]
1,"C[C@H]1CO[C@@H]2Cn3cc(C(=O)NCc4ccc(F)cc4F)c(=O)c(O)c3C(=O)N12 [CAB, cabotegravir]",>1200
2,"O=C(NCc1c(F)cc(F)cc1F)c1cn2c(c(O)c1=O)C(=O)N1[C@H]3CC[C@H](C3)O[C@@H]1C2 [BIC, bictegravir]",>2900
3,"COc1cc2c(cc1Cc1cccc(Cl)c1F)c(=O)c(C(=O)O)cn2[C@H](CO)C(C)C [EVG, elvitegravir]",>13000
4,"C[C@@H]1CCO[C@H]2Cn3cc(C(=O)NCc4ccc(F)cc4F)c(=O)c(O)c3C(=O)N12 [DTG, dolutegravir]",>1600

# Same assay, conditions: cAMP increase relative to 3 μM NDP-α-MSH control; CHO-K1 cells
row,Compound,IC50 [µM]
1,"C[C@H]1CO[C@@H]2Cn3cc(C(=O)NCc4ccc(F)cc4F)c(=O)c(O)c3C(=O)N12 [CAB, cabotegravir]",> 30
2,"O=C(NCc1c(F)cc(F)cc1F)c1cn2c(c(O)c1=O)C(=O)N1[C@H]3CC[C@H](C3)O[C@@H]1C2 [BIC, bictegravir]",> 100
3,"COc1cc2c(cc1Cc1cccc(Cl)c1F)c(=O)c(C(=O)O)cn2[C@H](CO)C(C)C [EVG, elvitegravir]",> 300
4,"C[C@@H]1CCO[C@H]2Cn3cc(C(=O)NCc4ccc(F)cc4F)c(=O)c(O)c3C(=O)N12 [DTG, dolutegravir]",> 100
5,"Cc1nnc(C(=O)NC(C)(C)c2nc(C(=O)NCc3ccc(F)cc3)c(O)c(=O)n2C)o1 [RAL, raltegravir]",> 300

# Biological target: T1, human MC4R
# Test: Biochemical radioligand binding assay ([125I]NDP-α-MSH) on membranes of transfected CHO cells
# Design: host or cells: CHO cells (membrane homogenates)
# Conditions: 100 µM test compound; % inhibition of [125I]NDP-α-MSH specific binding
row,Compound,% inhibition of binding at 100 µM [%]
1,"C[C@H]1CO[C@@H]2Cn3cc(C(=O)NCc4ccc(F)cc4F)c(=O)c(O)c3C(=O)N12 [CAB, cabotegravir]",86
2,"O=C(NCc1c(F)cc(F)cc1F)c1cn2c(c(O)c1=O)C(=O)N1[C@H]3CC[C@H](C3)O[C@@H]1C2 [BIC, bictegravir]",89
3,"COc1cc2c(cc1Cc1cccc(Cl)c1F)c(=O)c(C(=O)O)cn2[C@H](CO)C(C)C [EVG, elvitegravir]",56
4,"C[C@@H]1CCO[C@H]2Cn3cc(C(=O)NCc4ccc(F)cc4F)c(=O)c(O)c3C(=O)N12 [DTG, dolutegravir]",91
5,"Cc1nnc(C(=O)NC(C)(C)c2nc(C(=O)NCc3ccc(F)cc3)c(O)c(=O)n2C)o1 [RAL, raltegravir]",55

# Same assay, conditions: radioligand binding, 0.05 nM [125I]NDP-α-MSH, 8 concentrations
row,Compound,IC50 [µM]
1,"C[C@H]1CO[C@@H]2Cn3cc(C(=O)NCc4ccc(F)cc4F)c(=O)c(O)c3C(=O)N12 [CAB, cabotegravir]",0.46
2,"O=C(NCc1c(F)cc(F)cc1F)c1cn2c(c(O)c1=O)C(=O)N1[C@H]3CC[C@H](C3)O[C@@H]1C2 [BIC, bictegravir]",4.9
3,"COc1cc2c(cc1Cc1cccc(Cl)c1F)c(=O)c(C(=O)O)cn2[C@H](CO)C(C)C [EVG, elvitegravir]",13
4,"C[C@@H]1CCO[C@H]2Cn3cc(C(=O)NCc4ccc(F)cc4F)c(=O)c(O)c3C(=O)N12 [DTG, dolutegravir]",1.7
5,"Cc1nnc(C(=O)NC(C)(C)c2nc(C(=O)NCc3ccc(F)cc3)c(O)c(=O)n2C)o1 [RAL, raltegravir]",78

# Reference: paper PMC7048285, “Lack of an association between clinical INSTI-related body weight gain and direct interference with MC4 receptor (MC4R), a key central regulator of body weight” (PLoS ONE, 2020)
